Source: PubChem BioAssay (NCI)
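Five concentrations, 48 hours, 96-well plates. Here, GI50 denotes the concentration required for 50% inhibition of growth. At the TGI there is no net growth.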

How the values were obtained:
Experiment in all cases: DTP human tumour cell line panel, 48 h
SF-268 CNS = system: SF-268 CNS
UACC-257 melanoma = system: UACC-257 melanoma
NCI-H460 lung = system: NCI-H460 lung
SK-MEL-2 melanoma = system: SK-MEL-2 melanoma
MDA-MB-435 = system: MDA-MB-435
TK-10 renal = system: TK-10 renal
NCI-H522 lung = system: NCI-H522 lung
A549 NSCLC = system: A549 NSCLC
HT29 colon = system: HT29 colon
MCF7 breast = system: MCF7 breast
SR leukemia = system: SR leukemia
DU-145 prostate = system: DU-145 prostate
SN12C renal = system: SN12C renal
K-562 leukemia = system: K-562 leukemia
SK-OV-3 ovarian = system: SK-OV-3 ovarian
MDA-MB-231 breast = system: MDA-MB-231 breast
M14 melanoma = system: M14 melanoma
SW-620 colon = system: SW-620 colon
SK-MEL-5 melanoma = system: SK-MEL-5 melanoma
NCI-H226 lung = system: NCI-H226 lung
KM12 colon = system: KM12 colon
SF-295 CNS = system: SF-295 CNS
NCI/ADR-RES ovarian = system: NCI/ADR-RES ovarian
IGROV1 ovarian = system: IGROV1 ovarian
ACHN renal = system: ACHN renal
SF-539 CNS = system: SF-539 CNS
HCT-116 colon = system: HCT-116 colon
A498 renal = system: A498 renal
RPMI-8226 leukemia = system: RPMI-8226 leukemia
NCI-H23 lung = system: NCI-H23 lung
EKVX NSCLC = system: EKVX NSCLC
HOP-62 NSCLC = system: HOP-62 NSCLC
MDA-N = system: MDA-N
SK-MEL-28 melanoma = system: SK-MEL-28 melanoma
OVCAR-4 ovarian = system: OVCAR-4 ovarian
HS 578T breast = system: HS 578T breast
UACC-62 melanoma = system: UACC-62 melanoma
COLO 205 colon = system: COLO 205 colon
BT-549 breast = system: BT-549 breast
U251 CNS = system: U251 CNS
SNB-19 CNS = system: SNB-19 CNS
SNB-75 CNS = system: SNB-75 CNS
CAKI-1 renal = system: CAKI-1 renal
UO-31 renal = system: UO-31 renal
HCC-2998 colon = system: HCC-2998 colon
RXF 393 renal = system: RXF 393 renal
HL-60(TB) leukemia = system: HL-60(TB) leukemia
PC-3 prostate = system: PC-3 prostate
HOP-92 NSCLC = system: HOP-92 NSCLC
T-47D breast = system: T-47D breast
MALME-3M melanoma = system: MALME-3M melanoma
786-0 renal = system: 786-0 renal
OVCAR-8 ovarian = system: OVCAR-8 ovarian
OVCAR-3 ovarian = system: OVCAR-3 ovarian
MOLT-4 leukemia = system: MOLT-4 leukemia
LOX IMVI melanoma = system: LOX IMVI melanoma
HCT-15 colon = system: HCT-15 colon
CCRF-CEM leukemia = system: CCRF-CEM leukemia
OVCAR-5 ovarian = system: OVCAR-5 ovarian
SNB-78 CNS = system: SNB-78 CNS
HOP-18 NSCLC = system: HOP-18 NSCLC
LXFL 529 NSCLC = system: LXFL 529 NSCLC
M19-MEL melanoma = system: M19-MEL melanoma
DMS 114 small cell lung = system: DMS 114 small cell lung
DLD-1 colon = system: DLD-1 colon
DMS 273 small cell lung = system: DMS 273 small cell lung
KM20L2 colon = system: KM20L2 colon

OC(CCN1CCN(CCOC(c2ccc(F)cc2)c2ccc(F)cc2)CC1)c1ccccc1 (stereo not given)
TGI (SF-268 CNS): 31.2 µM | TGI (UACC-257 melanoma): 42.5 µM | TGI (NCI-H460 lung): 35.4 µM | TGI (SK-MEL-2 melanoma): 30.1 µM | TGI (MDA-MB-435): 38.9 µM | TGI (TK-10 renal): 29.2 µM | TGI (NCI-H522 lung): 28.1 µM | TGI (A549 NSCLC): 31 µM | TGI (HT29 colon): 21.6 µM | TGI (MCF7 breast): 35.6 µM | TGI (SR leukemia): 33.3 µM | TGI (DU-145 prostate): 32.8 µM | TGI (SN12C renal): 29.4 µM | TGI (K-562 leukemia): 26.4 µM | TGI (SK-OV-3 ovarian): 32.5 µM | TGI (MDA-MB-231 breast): 28.8 µM | TGI (M14 melanoma): 28 µM | TGI (SW-620 colon): 57.4 µM | TGI (SK-MEL-5 melanoma): 21 µM | TGI (NCI-H226 lung): 34.4 µM | TGI (KM12 colon): 44 µM | TGI (SF-295 CNS): 34.6 µM | TGI (NCI/ADR-RES ovarian): 26.8 µM | TGI (IGROV1 ovarian): 27.1 µM | TGI (ACHN renal): 25.8 µM | TGI (SF-539 CNS): 25.6 µM | TGI (HCT-116 colon): 26.2 µM | TGI (A498 renal): 19.5 µM | TGI (RPMI-8226 leukemia): 43 µM | TGI (NCI-H23 lung): 31.1 µM | TGI (EKVX NSCLC): 26.1 µM | TGI (HOP-62 NSCLC): 36.5 µM | TGI (MDA-N): 28.5 µM | TGI (SK-MEL-28 melanoma): 35.7 µM | TGI (OVCAR-4 ovarian): 39.4 µM | TGI (HS 578T breast): 37.3 µM | TGI (UACC-62 melanoma): 28.2 µM | TGI (COLO 205 colon): 18.2 µM | TGI (BT-549 breast): 27.1 µM | TGI (U251 CNS): 27.8 µM | TGI (SNB-19 CNS): 30.7 µM | TGI (SNB-75 CNS): 27.5 µM | TGI (CAKI-1 renal): 33.6 µM | TGI (UO-31 renal): 11.2 µM | TGI (HCC-2998 colon): 12.4 µM | TGI (RXF 393 renal): 24.1 µM | TGI (HL-60(TB) leukemia): 37.3 µM | TGI (PC-3 prostate): 26.7 µM | TGI (HOP-92 NSCLC): 23.8 µM | TGI (T-47D breast): 28.7 µM | TGI (MALME-3M melanoma): 26.8 µM | TGI (786-0 renal): 25.6 µM | TGI (OVCAR-8 ovarian): 25.7 µM | TGI (OVCAR-3 ovarian): 31.4 µM | TGI (MOLT-4 leukemia): 29.1 µM | TGI (LOX IMVI melanoma): 28.2 µM | TGI (HCT-15 colon): 27.1 µM | TGI (CCRF-CEM leukemia): 45.6 µM | TGI (OVCAR-5 ovarian): 27.8 µM

CC(C)(C)c1cc2c(OP(c3ccccc3)c3ccccc3)c(c1)Cc1cc(C(C)(C)C)cc(c1OP(c1ccccc1)c1ccccc1)Cc1cc(C(C)(C)C)cc(c1OP(c1ccccc1)c1ccccc1)Cc1cc(C(C)(C)C)cc(c1OP(c1ccccc1)c1ccccc1)C2
GI50 (SF-268 CNS): > 50 µM | TGI (SF-268 CNS): > 50 µM | GI50 (UACC-257 melanoma): > 50 µM | TGI (UACC-257 melanoma): > 50 µM | GI50 (NCI-H460 lung): > 50 µM | TGI (NCI-H460 lung): > 50 µM | TGI (SNB-78 CNS): > 5 µM | GI50 (SK-MEL-2 melanoma): > 50 µM | TGI (SK-MEL-2 melanoma): > 50 µM | GI50 (TK-10 renal): > 50 µM | TGI (TK-10 renal): > 50 µM | GI50 (NCI-H522 lung): 44.6 µM | TGI (NCI-H522 lung): > 50 µM | TGI (HOP-18 NSCLC): > 5 µM | GI50 (A549 NSCLC): > 50 µM | TGI (A549 NSCLC): > 50 µM | GI50 (HT29 colon): 47.8 µM | TGI (HT29 colon): > 50 µM | GI50 (LXFL 529 NSCLC): > 50 µM | TGI (LXFL 529 NSCLC): > 50 µM | TGI (SR leukemia): > 5 µM | GI50 (SN12C renal): > 50 µM | TGI (SN12C renal): > 50 µM | GI50 (K-562 leukemia): > 50 µM | TGI (K-562 leukemia): > 50 µM | GI50 (SK-OV-3 ovarian): > 50 µM | TGI (SK-OV-3 ovarian): > 50 µM | GI50 (M14 melanoma): > 50 µM | TGI (M14 melanoma): > 50 µM | GI50 (SW-620 colon): > 50 µM | TGI (SW-620 colon): > 50 µM | GI50 (SK-MEL-5 melanoma): > 50 µM | TGI (SK-MEL-5 melanoma): > 50 µM | GI50 (NCI-H226 lung): > 50 µM | TGI (NCI-H226 lung): > 50 µM | GI50 (KM12 colon): > 50 µM | TGI (KM12 colon): > 50 µM | GI50 (SF-295 CNS): > 50 µM | TGI (SF-295 CNS): > 50 µM | GI50 (IGROV1 ovarian): > 50 µM | TGI (IGROV1 ovarian): > 50 µM | TGI (ACHN renal): > 5 µM | GI50 (SF-539 CNS): > 50 µM | TGI (SF-539 CNS): > 50 µM | TGI (HCT-116 colon): > 5 µM | GI50 (A498 renal): > 50 µM | TGI (A498 renal): > 50 µM | GI50 (RPMI-8226 leukemia): 35.9 µM | TGI (RPMI-8226 leukemia): > 50 µM | GI50 (NCI-H23 lung): > 50 µM | TGI (NCI-H23 lung): > 50 µM | GI50 (EKVX NSCLC): > 50 µM | TGI (EKVX NSCLC): > 50 µM | GI50 (HOP-62 NSCLC): > 50 µM | TGI (HOP-62 NSCLC): > 50 µM | GI50 (M19-MEL melanoma): > 50 µM | TGI (M19-MEL melanoma): > 50 µM | GI50 (SK-MEL-28 melanoma): > 50 µM | TGI (SK-MEL-28 melanoma): > 50 µM | GI50 (OVCAR-4 ovarian): 22 µM | TGI (OVCAR-4 ovarian): > 50 µM | GI50 (UACC-62 melanoma): > 50 µM | TGI (UACC-62 melanoma): > 50 µM | GI50 (COLO 205 colon): > 50 µM | TGI (COLO 205 colon): > 50 µM | GI50 (DMS 114 small cell lung): > 50 µM | TGI (DMS 114 small cell lung): > 50 µM | GI50 (U251 CNS): > 50 µM | TGI (U251 CNS): > 50 µM | GI50 (SNB-19 CNS): > 50 µM | TGI (SNB-19 CNS): > 50 µM | GI50 (DLD-1 colon): > 50 µM | TGI (DLD-1 colon): > 50 µM | GI50 (SNB-75 CNS): > 50 µM | TGI (SNB-75 CNS): > 50 µM | TGI (CAKI-1 renal): > 5 µM | GI50 (UO-31 renal): > 50 µM | TGI (UO-31 renal): > 50 µM | GI50 (HCC-2998 colon): > 50 µM | TGI (HCC-2998 colon): > 50 µM | TGI (RXF 393 renal): > 50 µM | GI50 (HL-60(TB) leukemia): > 50 µM | TGI (HL-60(TB) leukemia): > 50 µM | GI50 (HOP-92 NSCLC): > 50 µM | TGI (HOP-92 NSCLC): > 50 µM | GI50 (MALME-3M melanoma): > 50 µM | TGI (MALME-3M melanoma): > 50 µM | GI50 (786-0 renal): > 50 µM | TGI (786-0 renal): > 50 µM | GI50 (OVCAR-8 ovarian): > 50 µM | TGI (OVCAR-8 ovarian): > 50 µM | GI50 (DMS 273 small cell lung): > 50 µM | TGI (DMS 273 small cell lung): > 50 µM | GI50 (OVCAR-3 ovarian): > 50 µM | TGI (OVCAR-3 ovarian): > 50 µM | TGI (MOLT-4 leukemia): > 5 µM | GI50 (LOX IMVI melanoma): 22.9 µM | TGI (LOX IMVI melanoma): > 50 µM | GI50 (HCT-15 colon): > 50 µM | TGI (HCT-15 colon): > 50 µM | GI50 (KM20L2 colon): > 50 µM | TGI (KM20L2 colon): > 50 µM | GI50 (CCRF-CEM leukemia): 44.6 µM | TGI (CCRF-CEM leukemia): > 50 µM | GI50 (OVCAR-5 ovarian): > 50 µM | TGI (OVCAR-5 ovarian): > 50 µM
